Columns and labels:
[1] = system: Erigeron canadensis; experiment: Herbicidal activity against compound-resistant Conyza canadensis (horseweed) isolate 2 under greenhouse condition at 1.25 kg ae/ha measured 14 days post treatment relative to control; assay type: functional
[2] = system: Erigeron canadensis; experiment: Herbicidal activity against compound-resistant Conyza canadensis (horseweed) isolate 2 under greenhouse condition at 3.36 kg ae/ha measured 7 days post treatment relative to control; assay type: functional
[3] = system: Erigeron canadensis; experiment: Herbicidal activity against compound-resistant Conyza canadensis (horseweed) isolate 2 under greenhouse condition at 1.25 kg ae/ha measured 7 days post treatment relative to control; assay type: functional
[4] = system: Erigeron canadensis; experiment: Herbicidal activity against compound-resistant Conyza canadensis (horseweed) isolate 2 under greenhouse condition at 0.45 kg ae/ha measured 7 days post treatment relative to control; assay type: functional
[5] = system: Erigeron canadensis; experiment: Herbicidal activity against Conyza canadensis (horseweed) under greenhouse condition at 0.05 kg ae/ha measured 21 days post treatment relative to control; assay type: functional
[6] = system: Erigeron canadensis; experiment: Herbicidal activity against Conyza canadensis (horseweed) under greenhouse condition at 0.05 kg ae/ha measured 7 days post treatment relative to control; assay type: functional
[7] = system: Erigeron canadensis; experiment: Herbicidal activity against compound-resistant Conyza canadensis (horseweed) isolate 2 under greenhouse condition at 9 kg ae/ha measured 21 days post treatment relative to control; assay type: functional
[8] = system: Erigeron canadensis; experiment: Herbicidal activity against compound-resistant Conyza canadensis (horseweed) isolate 2 under greenhouse condition at 0.84 kg ae/ha measured 21 days post treatment relative to control; assay type: functional
[9] = system: Erigeron canadensis; experiment: Herbicidal activity against compound-resistant Conyza canadensis (horseweed) isolate 2 under greenhouse condition at 0.45 kg ae/ha measured 21 days post treatment relative to control; assay type: functional
[10] = system: Erigeron canadensis; experiment: Herbicidal activity against compound-resistant Conyza canadensis (horseweed) isolate 2 under greenhouse condition at 2.52 kg ae/ha measured 14 days post treatment relative to control; assay type: functional
[11] = system: Erigeron canadensis; experiment: Herbicidal activity against compound-sensitive Conyza canadensis (horseweed) under greenhouse condition at 0.84 kg ae/ha measured 14 days post treatment relative to control; assay type: functional
[12] = system: Erigeron canadensis; experiment: Herbicidal activity against compound-sensitive Conyza canadensis (horseweed) under greenhouse condition at 0.45 kg ae/ha measured 14 days post treatment relative to control; assay type: functional
[13] = system: Erigeron canadensis; experiment: Herbicidal activity against compound-sensitive Conyza canadensis (horseweed) under greenhouse condition at 9 kg ae/ha measured 7 days post treatment relative to control; assay type: functional
[14] = system: Erigeron canadensis; experiment: Herbicidal activity against compound-sensitive Conyza canadensis (horseweed) under greenhouse condition at 1.68 kg ae/ha measured 7 days post treatment relative to control; assay type: functional
[15] = system: Erigeron canadensis; experiment: Herbicidal activity against compound-sensitive Conyza canadensis (horseweed) under greenhouse condition at 1.25 kg ae/ha measured 7 days post treatment relative to control; assay type: functional
[16] = system: Erigeron canadensis; experiment: Herbicidal activity against compound-sensitive Conyza canadensis (horseweed) under greenhouse condition at 0.84 kg ae/ha measured 7 days post treatment relative to control; assay type: functional
[17] = system: Erigeron canadensis; experiment: Herbicidal activity against compound-resistant Conyza canadensis (horseweed) isolate 1 under greenhouse condition at 1.68 kg ae/ha measured 21 days post treatment relative to control; assay type: functional
[18] = system: Erigeron canadensis; experiment: Herbicidal activity against compound-resistant Conyza canadensis (horseweed) isolate 1 under greenhouse condition at 1.25 kg ae/ha measured 21 days post treatment relative to control; assay type: functional
[19] = system: Erigeron canadensis; experiment: Herbicidal activity against compound-resistant Conyza canadensis (horseweed) isolate 1 under greenhouse condition at 0.84 kg ae/ha measured 21 days post treatment relative to control; assay type: functional
[20] = system: Erigeron canadensis; experiment: Herbicidal activity against compound-resistant Conyza canadensis (horseweed) isolate 1 under greenhouse condition at 0.45 kg ae/ha measured 21 days post treatment relative to control; assay type: functional
[21] = system: Erigeron canadensis; experiment: Herbicidal activity against compound-sensitive Conyza canadensis (horseweed) under greenhouse condition at 0.45 kg ae/ha measured 21 days post treatment relative to control; assay type: functional
[22] = system: Erigeron canadensis; experiment: Herbicidal activity against compound-resistant Conyza canadensis (horseweed) isolate 1 under greenhouse condition at 3.36 kg ae/ha measured 14 days post treatment relative to control; assay type: functional
[23] = system: Erigeron canadensis; experiment: Herbicidal activity against compound-resistant Conyza canadensis (horseweed) isolate 1 under greenhouse condition at 3.36 kg ae/ha measured 7 days post treatment relative to control; assay type: functional
[24] = system: Erigeron canadensis; experiment: Herbicidal activity against compound-resistant Conyza canadensis (horseweed) isolate 1 under greenhouse condition at 1.25 kg ae/ha measured 7 days post treatment relative to control; assay type: functional
[25] = system: Erigeron canadensis; experiment: Herbicidal activity against compound-sensitive Conyza canadensis (horseweed) under greenhouse condition at 0.84 kg ae/ha measured 21 days post treatment relative to control; assay type: functional
[26] = system: Erigeron canadensis; experiment: Herbicidal activity against compound-sensitive Conyza canadensis (horseweed) under greenhouse condition at 1.68 kg ae/ha measured 14 days post treatment relative to control; assay type: functional
[27] = system: Erigeron canadensis; experiment: Herbicidal activity against compound-resistant Conyza canadensis (horseweed) isolate 1 under greenhouse condition at 2.52 kg ae/ha measured 14 days post treatment relative to control; assay type: functional
[28] = system: Erigeron canadensis; experiment: Herbicidal activity against compound-resistant Conyza canadensis (horseweed) isolate 1 under greenhouse condition at 1.68 kg ae/ha measured 14 days post treatment relative to control; assay type: functional
[29] = system: Erigeron canadensis; experiment: Herbicidal activity against compound-sensitive Conyza canadensis (horseweed) under greenhouse condition at 2.52 kg ae/ha measured 21 days post treatment relative to control; assay type: functional
[30] = system: Erigeron canadensis; experiment: Herbicidal activity against compound-sensitive Conyza canadensis (horseweed) under greenhouse condition assessed as fresh weight at 0.84 kg ae/ha measured 21 days post treatment relative to untreated control
[31] = system: Erigeron canadensis; experiment: Herbicidal activity against compound-resistant Conyza canadensis (horseweed) isolate 2 under greenhouse condition assessed as fresh weight at 3.36 kg ae/ha measured 21 days post treatment relative to untreated control
[32] = system: Erigeron canadensis; experiment: Herbicidal activity against compound-resistant Conyza canadensis (horseweed) isolate 1 under greenhouse condition assessed as fresh weight at 3.36 kg ae/ha measured 21 days post treatment relative to untreated control
[33] = system: Erigeron canadensis; experiment: Herbicidal activity against compound-resistant Conyza canadensis (horseweed) isolate 1 under greenhouse condition assessed as fresh weight at 2.52 kg ae/ha measured 21 days post treatment relative to untreated control
[34] = system: Erigeron canadensis; experiment: Herbicidal activity against compound-resistant Conyza canadensis (horseweed) isolate 1 under greenhouse condition assessed as fresh weight at 1.68 kg ae/ha measured 21 days post treatment relative to untreated control
[35] = system: Erigeron canadensis; experiment: Herbicidal activity against compound-resistant Conyza canadensis (horseweed) isolate 2 under greenhouse condition assessed as fresh weight at 1.68 kg ae/ha measured 21 days post treatment relative to untreated control
[36] = system: Erigeron canadensis; experiment: Herbicidal activity against compound-resistant Conyza canadensis (horseweed) isolate 2 under greenhouse condition assessed as fresh weight at 0.45 kg ae/ha measured 21 days post treatment relative to untreated control
[37] = system: Erigeron canadensis; experiment: Herbicidal activity against compound-resistant Conyza canadensis (horseweed) isolate 1 under greenhouse condition assessed as fresh weight at 0.45 kg ae/ha measured 21 days post treatment relative to untreated control

O=C(O)CNCP(=O)(O)O [GLYPHOSATE]
Activity [1]: 15%
Activity [2]: 60%
Activity [3]: 33%
Activity [4]: 13%
Activity [5]: 26%
Activity [6]: 14%
Activity [7]: 89%
Activity [8]: 24%
Activity [9]: 20%
Activity [10]: 50%
Activity [11]: 63%
Activity [12]: 40%
Activity [13]: 90%
Activity [14]: 63%
Activity [15]: 60%
Activity [16]: 58%
Activity [17]: 43%
Activity [18]: 30%
Activity [19]: 11%
Activity [20]: 11%
Activity [21]: 74%
Activity [22]: 58%
Activity [23]: 73%
Activity [24]: 28%
Activity [25]: 88%
Activity [26]: 98%
Activity [27]: 45%
Activity [28]: 40%
Activity [29]: 99%
level, % of control [30]: 27%
level, % of control [31]: 18%
level, % of control [32]: 7%
level, % of control [33]: 25%
level, % of control [34]: 36%
level, % of control [35]: 49%
level, % of control [36]: 94%
level, % of control [37]: 99%

— ChEMBL document CHEMBL3045777, “Response of selected horseweed (Conyza canadensis (L.) Cronq.) populations to glyphosate” (2004)
